Read-outs that look alike come from different tables or passages of the source.
Columns and labels:
[1] = cited from earlier work
OAT1 = target: T1, OAT1 (Homo sapiens, UniProt Q4U2R8); assay: Substrate potential in transporter-transfected MDCK cells; format: in vitro ADME
T1 construct: host or cells: MDCK
T1 sequence (Q4U2R8 1-563): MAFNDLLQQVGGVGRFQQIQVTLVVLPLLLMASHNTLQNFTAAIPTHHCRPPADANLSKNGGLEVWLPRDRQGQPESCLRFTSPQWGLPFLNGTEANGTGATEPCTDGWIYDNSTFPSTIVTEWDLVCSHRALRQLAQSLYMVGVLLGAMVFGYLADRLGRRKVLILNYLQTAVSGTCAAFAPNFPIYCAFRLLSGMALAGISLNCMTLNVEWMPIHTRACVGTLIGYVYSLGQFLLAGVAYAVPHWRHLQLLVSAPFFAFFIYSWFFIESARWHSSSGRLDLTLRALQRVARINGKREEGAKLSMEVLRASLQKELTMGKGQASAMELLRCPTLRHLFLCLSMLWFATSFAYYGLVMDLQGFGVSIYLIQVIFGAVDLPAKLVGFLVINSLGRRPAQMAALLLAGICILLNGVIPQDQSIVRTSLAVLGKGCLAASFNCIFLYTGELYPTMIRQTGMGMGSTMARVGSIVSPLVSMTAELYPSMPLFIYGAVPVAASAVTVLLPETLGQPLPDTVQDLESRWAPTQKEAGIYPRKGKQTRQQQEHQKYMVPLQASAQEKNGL
Protocol: (§1) The uptake of a probe substrate of each transporter was conducted in parallel with the test article in separate wells of the same batch of vector control and transporter-transfected cells. Cells were incubated at 37 °C with 5% CO2 with 500 μL of dosing solution for different periods of time.

MATE1 = target: T2, MATE1 (Homo sapiens, UniProt Q96FL8); assay: as above; format: in vitro ADME
T2 construct: host or cells: MDCK
T2 sequence (Q96FL8 1-570): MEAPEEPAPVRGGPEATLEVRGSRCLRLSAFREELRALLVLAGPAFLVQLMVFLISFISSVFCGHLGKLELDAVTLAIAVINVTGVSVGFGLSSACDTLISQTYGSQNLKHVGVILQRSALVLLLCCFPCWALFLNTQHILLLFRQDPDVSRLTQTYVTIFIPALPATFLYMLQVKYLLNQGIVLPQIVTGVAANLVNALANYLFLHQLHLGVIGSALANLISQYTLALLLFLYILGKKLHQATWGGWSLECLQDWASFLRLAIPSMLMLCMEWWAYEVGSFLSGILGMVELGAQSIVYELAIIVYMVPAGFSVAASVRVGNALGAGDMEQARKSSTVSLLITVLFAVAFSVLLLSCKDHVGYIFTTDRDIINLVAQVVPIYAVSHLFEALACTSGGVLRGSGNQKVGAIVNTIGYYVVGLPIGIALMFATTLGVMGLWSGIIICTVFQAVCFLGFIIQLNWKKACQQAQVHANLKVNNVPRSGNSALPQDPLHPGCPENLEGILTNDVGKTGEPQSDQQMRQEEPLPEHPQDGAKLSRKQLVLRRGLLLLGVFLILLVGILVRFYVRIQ
Protocol: as §1

BCRP [2] = target: T3, BCRP (Homo sapiens, UniProt Q9UNQ0); assay: Inhibition of BCRP-mediated efflux transport in BCRP-MDCK cells; format: in vitro ADME
T3 construct: host or cells: MDCK (BCRP-MDCK)
T3 sequence (Q9UNQ0 1-655): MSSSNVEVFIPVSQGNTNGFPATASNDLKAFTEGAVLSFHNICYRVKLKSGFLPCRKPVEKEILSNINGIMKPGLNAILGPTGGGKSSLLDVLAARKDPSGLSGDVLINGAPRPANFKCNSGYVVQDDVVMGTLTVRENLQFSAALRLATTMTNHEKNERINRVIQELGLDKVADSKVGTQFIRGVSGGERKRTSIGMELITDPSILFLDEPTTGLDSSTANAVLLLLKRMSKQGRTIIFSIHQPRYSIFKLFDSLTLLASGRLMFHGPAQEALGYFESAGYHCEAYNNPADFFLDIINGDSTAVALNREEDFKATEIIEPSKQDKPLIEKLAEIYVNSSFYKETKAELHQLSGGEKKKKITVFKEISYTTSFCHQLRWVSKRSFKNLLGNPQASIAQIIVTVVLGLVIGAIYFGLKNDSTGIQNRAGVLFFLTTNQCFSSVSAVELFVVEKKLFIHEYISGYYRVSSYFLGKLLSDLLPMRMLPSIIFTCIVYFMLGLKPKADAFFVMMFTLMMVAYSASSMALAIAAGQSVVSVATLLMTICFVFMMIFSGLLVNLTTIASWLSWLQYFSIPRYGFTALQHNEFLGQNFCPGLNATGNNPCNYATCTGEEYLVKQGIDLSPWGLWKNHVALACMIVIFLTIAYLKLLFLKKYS
Protocol: A preincubation with EBO or known inhibitor was performed on both sides to preload the cells. After 30 min, the preincubation solution was aspirated. Aliquots of fresh dosing solution with or without EBO or known inhibitor (0.55 mL for AP-to-BL, 1.55 mL for BL-to-AP) were added to the donor compartment, and HBSSg_7.4 with or without EBO or known inhibitor (1.5 mL for AP-to-BL, 0.5 mL for BL-to-AP) were added to the receiver compartment. Receiver samples (200 µL) and donor samples (50 µL) were taken at preselected time points.
Cell monolayer integrity was examined using lucifer yellow (excitation 450 nm and emission 538 nm). The concentrations of the probe substrate in the donor and receiver samples, as well as EBO in dosing solutions, were determined by LC-MS/MS.

BCRP [3] = target: T3, BCRP; assay: Substrate potential for BCRP, bidirectional permeability in BCRP-MDCK; format: in vitro ADME; details: for Concentration in the receiver compartment: 5 µM, BCRP-MDCK and MDCK cells, A to B and B to A, Papp and efflux ratio could not be calculated; for as a Substrate: BCRP
[4] = EBO 500 mg PO q24h, healthy subjects, Study EBO-101, printed with "(unbound fraction)", read-out: Steady-state systemic total Cmax
[5] = human study of radiolabeled EBO

Structure (SMILES)	Cmax ([1]; 500 mg/day PO human clinical dose) [ng/mL]	Cmax [1, 4] [µM]	Influx ratio (OAT1)	as a Substrate (OAT1)	Influx ratio (MATE1)	as a Substrate (MATE1)	inhibition at 300 µM (BCRP [2]; human, BCRP-MDCK cells, pH 7.4, at 300 μM) [%]	inhibition at 1000 µM (BCRP [2]; human, BCRP-MDCK cells, pH 7.4, at 1000 µM) [%]	Concentration in the receiver compartment (BCRP [3])	as a Substrate (BCRP [3])	Excretion (in words) [1, 5]	Further metabolism (in words) [1, 5]	inhibition at 500 µM (BCRP [2]; human, BCRP-MDCK cells, pH 7.4, at 500 μM) [%]	IC50 (BCRP [2]; read-out: as an Inhibitor, IC50) [µM]
NC[C@H]1OB(O)c2c(OCCCO)cccc21 [EBO, Epetraborole]	2850	12	< 2	No	< 2	No	13	27	below the lower limit of quantification	No	–	–	–	–
NC[C@H]1OB(O)c2c(OCCC(=O)O)cccc21 [M3]	–	20	< 2	No	< 2	No	–	–	below the lower limit of quantification	No	excreted predominantly in the urine	not subject to further metabolism	44	> 500
